Data as given in PMC4724694 (Acta Pharmaceutica Sinica. B, 2016).

What was measured:
5-LOX [1] = target: T1, 5-LOX (Rattus norvegicus, UniProt P12527); test: Inhibition of 5-LOX product synthesis; type: cell-based; conditions: for IC50: IC50 PMNL, rat peritoneal polymorphonuclear leukocytes; for inhibition at 5 µM: PMNL, read-out: Inhibition at 5 μmol/L (%)
T1 sequence (P12527 1-673): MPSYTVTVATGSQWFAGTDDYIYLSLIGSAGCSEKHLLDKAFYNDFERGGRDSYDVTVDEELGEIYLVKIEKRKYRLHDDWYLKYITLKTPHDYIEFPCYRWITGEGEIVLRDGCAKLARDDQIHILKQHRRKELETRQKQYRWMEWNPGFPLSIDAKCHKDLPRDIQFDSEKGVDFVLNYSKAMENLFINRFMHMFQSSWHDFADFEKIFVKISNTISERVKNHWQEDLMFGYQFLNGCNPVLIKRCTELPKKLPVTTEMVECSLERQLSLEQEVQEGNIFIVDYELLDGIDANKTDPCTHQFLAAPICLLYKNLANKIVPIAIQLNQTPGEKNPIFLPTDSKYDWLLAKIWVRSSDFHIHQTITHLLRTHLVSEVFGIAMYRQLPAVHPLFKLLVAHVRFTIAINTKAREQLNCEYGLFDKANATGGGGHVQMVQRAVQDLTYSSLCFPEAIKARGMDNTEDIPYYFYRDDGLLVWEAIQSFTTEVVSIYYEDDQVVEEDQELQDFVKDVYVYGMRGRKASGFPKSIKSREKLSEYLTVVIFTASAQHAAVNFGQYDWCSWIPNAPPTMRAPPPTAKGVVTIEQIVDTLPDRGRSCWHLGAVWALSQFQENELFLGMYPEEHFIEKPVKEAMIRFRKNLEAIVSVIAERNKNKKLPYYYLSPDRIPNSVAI

5-LOX [2] = target: T2, 5-LOX (Homo sapiens, UniProt P09917); test: Inhibition of 5-LOX product synthesis; type: cell-based
T2 sequence (P09917 1-674): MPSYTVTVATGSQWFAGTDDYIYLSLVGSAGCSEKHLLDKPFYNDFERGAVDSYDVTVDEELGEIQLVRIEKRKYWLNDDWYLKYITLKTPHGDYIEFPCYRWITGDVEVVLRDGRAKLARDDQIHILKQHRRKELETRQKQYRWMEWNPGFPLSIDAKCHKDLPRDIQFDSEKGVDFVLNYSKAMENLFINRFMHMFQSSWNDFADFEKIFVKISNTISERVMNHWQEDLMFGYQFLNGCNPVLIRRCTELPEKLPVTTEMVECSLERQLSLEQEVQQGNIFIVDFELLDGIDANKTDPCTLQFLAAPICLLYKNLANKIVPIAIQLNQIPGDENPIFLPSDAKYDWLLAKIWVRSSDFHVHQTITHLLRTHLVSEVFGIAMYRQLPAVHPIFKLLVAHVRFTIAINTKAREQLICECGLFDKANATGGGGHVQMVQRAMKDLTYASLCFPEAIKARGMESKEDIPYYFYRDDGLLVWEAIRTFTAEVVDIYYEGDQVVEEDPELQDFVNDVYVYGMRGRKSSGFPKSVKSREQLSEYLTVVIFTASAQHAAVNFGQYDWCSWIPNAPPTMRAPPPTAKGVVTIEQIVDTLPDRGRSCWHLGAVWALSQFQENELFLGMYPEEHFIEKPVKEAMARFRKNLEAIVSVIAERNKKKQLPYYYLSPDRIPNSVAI

5-LOX [3] = target: T2, 5-LOX; test: Cell-free 5-LOX enzymatic assay; type: biochemical

Row | Structure (SMILES) | IC50 (5-LOX [1]) [µM] | inhibition at 5 µM (5-LOX [1]) [%] | IC50 (5-LOX [2]) [µM] | IC50 (5-LOX [3]) [µM] | Inhibition at 5 μmol/L (%) (5-LOX [1]; rat PMNLs, 5 μmol/L, mean of three determinations)
1 | CC(C)(C)c1cc(NC(=O)c2cc(-c3ccc(Br)s3)n(-c3ccc(S(N)(=O)=O)cc3)n2)cc(C(C)(C)C)c1O [4k, N-(3,5-di-tert-butyl-4-hydroxyphenyl)-1-(4-aminosulfonylphenyl)-5-(5-bromothiophen-2-yl)-1H-pyrazole-3-carboxamide] | 0.9 | 74.5 | 5.83 | 0.159 ± 0.016 | 
2 | CC(C)(C)c1cc(NC(=O)c2cc(-c3ccc4c(c3)OCCO4)n(-c3ccc(S(C)(=O)=O)cc3)n2)cc(C(C)(C)C)c1O [5f, N-(3,5-di-tert-butyl-4-hydroxyphenyl)-5-(2,3-dihydrobenzo [1, 4]dioxin-7-yl)-1-(4-methylsulfonylphenyl)-1H-pyrazole-3-carboxamide] | 0.81 | 70.3 | 4.65 | 0.273 ± 0.021 | 
3 | CC(C)Cc1ccc(-c2cc(C(=O)Nc3cc(C(C)(C)C)c(O)c(C(C)(C)C)c3)nn2-c2ccc(S(C)(=O)=O)cc2)cc1 [5d, N-(3,5-di-tert-butyl-4-hydroxyphenyl)-1-(4-methylsulfonylphenyl)-5-p-iso-butylphenyl-1H-pyrazole-3-carboxamide] |  | 60.2 |  |  | 
4 | CC(C)(C)c1cc(NC(=O)c2cc(C3CCCCC3)n(-c3ccc(S(C)(=O)=O)cc3)n2)cc(C(C)(C)C)c1O [5j, N-(3,5-di-tert-butyl-4-hydroxyphenyl)-1-(4-methylsulfonylphenyl)-5-cyclo-hexyl-1H-pyrazole-3-carboxamide] |  | 57.3 |  |  | 
5 | Cc1ccc(-c2cc(C(=O)Nc3cc(C(C)(C)C)c(O)c(C(C)(C)C)c3)nn2-c2ccc(F)cc2)cc1 [6b, N-(3,5-di-tert-butyl-4-hydroxyphenyl)-1-(4-fluorophenyl)-5-p-tolyl-1H-pyrazole-3-carboxamide] | 0.82 | 83.7 | 10.2 | 0.327 ± 0.022 | 
6 | CC(C)(C)c1cc(NC(=O)c2cc(-c3ccccc3)n(-c3ccc(F)cc3)n2)cc(C(C)(C)C)c1O [6a, N-(3,5-di-tert-butyl-4-hydroxyphenyl)-1-(4-fluorophenyl)-5-phenyl-1H-pyrazole-3-carboxamide] |  | 56.8 |  |  | 
7 | Cc1ccc(-c2cc(C(=O)Nc3cc(C(C)(C)C)c(O)c(C(C)(C)C)c3)nn2-c2ccc(S(N)(=O)=O)cc2)cc1 [4b, N-(3,5-di-tert-butyl-4-hydroxyphenyl)-1-(4-aminosulfonylphenyl)-5-p-tolyl-1H-pyrazole-3-carboxamide] |  | 65.7 |  |  | 
8 | COc1ccc(-c2cc(C(=O)Nc3cc(C(C)(C)C)c(O)c(C(C)(C)C)c3)nn2-c2ccc(S(N)(=O)=O)cc2)cc1 [4c, N-(3,5-di-tert-butyl-4-hydroxyphenyl)-1-(4-aminosulfonylphenyl)-5-p-meth-oxyphenyl-1H-pyrazole-3-carboxamide] | 0.45 | 74.9 | 4.87 | 0.136 ± 0.015 | 
9 | COc1ccc(-c2cc(C(=O)Nc3cc(C(C)(C)C)c(O)c(C(C)(C)C)c3)nn2-c2ccc(S(C)(=O)=O)cc2)cc1 [5c, N-(3,5-di-tert-butyl-4-hydroxyphenyl)-1-(4-methylsulfonylphenyl)-5-p-methoxyphenyl-1H-pyrazole-3-carboxamide] |  | 35.6 |  |  | 
10 | CC(C)(C)c1cc(NC(=O)c2cc(-c3ccc4ccccc4c3)n(-c3ccc(S(C)(=O)=O)cc3)n2)cc(C(C)(C)C)c1O [5g, N-(3,5-di-tert-butyl-4-hydroxyphenyl)-1-(4-methylsulfonylphenyl)-5-naphth-2-yl-1H-pyrazole-3-carboxamide] |  | 51.7 |  |  | 
11 | CC(C)(C)c1cc(NC(=O)c2cc(-c3ccc(F)cc3)n(-c3ccc(S(N)(=O)=O)cc3)n2)cc(C(C)(C)C)c1O [4h, N-(3,5-di-tert-butyl-4-hydroxyphenyl)-1-(4-aminosulfonylphenyl)-5-p-fluorophenyl-1H-pyrazole-3-carboxamide] |  | 39.3 |  |  | 
12 | Cc1ccc(-c2cc(C(=O)Nc3cc(C(C)(C)C)c(O)c(C(C)(C)C)c3)nn2-c2ccc(S(C)(=O)=O)cc2)cc1 [5b, N-(3,5-di-tert-butyl-4-hydroxyphenyl)-1-(4-methylsulfonylphenyl)-5-p-tolyl-1H-pyrazole-3-carboxamide] |  | 62.8 |  |  | 
13 | CC(C)(C)c1cc(NC(=O)c2cc(-c3ccccc3)n(-c3ccc(S(C)(=O)=O)cc3)n2)cc(C(C)(C)C)c1O [5a, N-(3,5-di-tert-butyl-4-hydroxyphenyl)-1-(4-methylsulfonylphenyl)-5-phenyl-1H-pyrazole-3-carboxamide] |  | 41.9 |  |  | 
14 | CC(C)(C)c1cc(NC(=O)c2cc(-c3ccccc3)n(-c3ccc(S(N)(=O)=O)cc3)n2)cc(C(C)(C)C)c1O [4a, N-(3,5-di-tert-butyl-4-hydroxyphenyl)-1-(4-aminosulfonyl-phenyl)-5-phenyl-1H-pyrazole-3-carboxamide] |  | 55.7 |  |  | 
15 | CC(C)Cc1ccc(-c2cc(C(=O)Nc3cc(C(C)(C)C)c(O)c(C(C)(C)C)c3)nn2-c2ccc(S(N)(=O)=O)cc2)cc1 [4d, N-(3,5-di-tert-butyl-4-hydroxyphenyl)-1-(4-aminosulfonylphenyl)-5-p-iso-butylphenyl-1H-pyrazole-3-carboxamide] |  | 59 |  |  | 
16 | CC(C)(C)c1cc(NC(=O)c2cc(-c3ccc4ccccc4c3)n(-c3ccc(S(N)(=O)=O)cc3)n2)cc(C(C)(C)C)c1O [4g, N-(3,5-di-tert-butyl-4-hydroxyphenyl)-1-(4-aminosulfonylphenyl)-5-naphth-2-yl-1H-pyrazole-3-carboxamide] | 0.75 | 66.1 | 2.11 | 0.165 ± 0.017 | 
17 | CC(C)(C)c1cc(NC(=O)c2cc(C3CCCCC3)n(-c3ccc(S(N)(=O)=O)cc3)n2)cc(C(C)(C)C)c1O [4j, N-(3,5-di-tert-butyl-4-hydroxyphenyl)-1-(4-aminosulfonylphenyl)-5-cyclo-hexyl-1H-pyrazole-3-carboxamide] | 1.07 | 69.2 | 33.9 |  | 
18 | CC(C)(C)c1cc(NC(=O)c2cc(-c3ccc4c(c3)OCO4)n(-c3ccc(S(C)(=O)=O)cc3)n2)cc(C(C)(C)C)c1O [5e, N-(3,5-di-tert-butyl-4-hydroxyphenyl)-5-(benzo [1, 3]dioxol-5-yl)-1-(4-methylsulfonylphenyl)-1H-pyrazole-3-carboxamide] | 0.64 | 79.3 | 0.94 | 0.169 ± 0.016 | 
19 | CC(C)(C)c1cc(NC(=O)c2cc(-c3ccc4c(c3)OCCO4)n(-c3ccc(S(N)(=O)=O)cc3)n2)cc(C(C)(C)C)c1O [4f, N-(3,5-di-tert-butyl-4-hydroxyphenyl)-5-(2,3-dihydrobenzo [1, 4]dioxin-7-yl)-1-(4-aminosulfonylphenyl)-1H-pyrazole-3-carboxamide] |  | 50.7 |  |  | 
20 | CC(C)(C)c1cc(NC(=O)c2cc(-c3ccc(C(F)(F)F)cc3)n(-c3ccc(S(N)(=O)=O)cc3)n2)cc(C(C)(C)C)c1O [4i, N-(3,5-di-tert-butyl-4-hydroxyphenyl)-1-(4-aminosulfonylphenyl)-5-p-trifluoromethylphenyl-1H-pyrazole-3-carboxamide] |  |  |  |  | 61.9
